Experimental findings from patent US20240360178A1, “MACROCYCLIC IMMUNOMODULATORS” (Bristol-Myers Squibb Company, priority 2021, published 2024) are described below.

The term IC50 denotes the concentration needed to halve the response being measured.

SMILES strings stand for the structures. Positions of bridges follow the written chain, without caps; N, C: chain ends. Non-standard residues stand in square brackets, D forms with d. Residues, ends and D or L forms follow the SMILES beside them. Tyr(3-NO2) = N[C@@H](Cc1ccc(O)c([N+](=O)[O-])c1)C(=O)O; Phe(3-CF3) = N[C@@H](Cc1cccc(C(F)(F)F)c1)C(=O)O; Phe(4-CH2NH2) = NCc1ccc(C[C@H](N)C(=O)O)cc1; Ala(4-thiazolyl) = N[C@@H](Cc1cscn1)C(=O)O; Bip = N[C@@H](Cc1ccc(-c2ccccc2)cc1)C(=O)O; NMeF = CN[C@@H](Cc1ccccc1)C(=O)O; NMeA = CN[C@@H](C)C(=O)O; Orn = NCCC[C@H](N)C(=O)O; Dab = NCC[C@H](N)C(=O)O; Sar = CNCC(=O)O

The test has as its target T1, human PD-1 (Jurkat-PD-1 cells) / PE-labeled human PD-L1-Ig (Homo sapiens, UniProt Q15116).
T1 construct: expressed in transfected cells; host or cells: Jurkat cell line over-expressing human PD-1
The test is described as follows: Jurkat-PD-1 Cell Binding High-Content Screening Assay (CBA); Jurkat hPD1-PDL1 assay. The following applies: Jurkat cell line over-expressing human PD-1; PE-labeled PD-L1-Ig 20 nM final; compound incubated 2 hours at 37° C.; read-out: Jurkat HPD1-PDL1 IC50. Put shortly:
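Compound was added to Jurkat-PD-1 cells in DMEM plus 10% fetal calf serum and incubated 2 hours at 37° C. Binding of phycoerythrin-conjugated PD-L1-Ig (20 nM final) to the cells was imaged.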

T1 sequence (Q15116 25-288): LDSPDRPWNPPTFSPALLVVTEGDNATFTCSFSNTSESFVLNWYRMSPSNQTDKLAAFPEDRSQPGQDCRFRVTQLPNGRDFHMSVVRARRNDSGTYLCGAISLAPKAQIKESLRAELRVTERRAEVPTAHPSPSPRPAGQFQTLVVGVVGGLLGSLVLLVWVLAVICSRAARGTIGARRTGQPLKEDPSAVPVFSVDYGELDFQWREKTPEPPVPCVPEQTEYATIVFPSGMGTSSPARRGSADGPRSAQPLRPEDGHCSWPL

With `CC(C)C[C@@H]1NC(=O)[C@H](CCCNC(=N)N)NC(=O)[C@H](Cc2ccccc2)N(C)C(=O)[C@H](C)N(C)C(=O)[C@H](CCCNC(=N)N)NC(=O)[C@H](Cc2ccc(-c3ccccc3)cc2)NC(=O)[C@H](C(C)C)NC(=O)[C@H](Cc2c[nH]c3ccccc23)NC(=O)[C@H](CC(=O)O)NC(=O)[C@H](Cc2ccc(O)cc2)NC(=O)[C@H](Cc2ccc(CN)cc2)NC(=O)CSC[C@@H](C(=O)NCC(N)=O)NC(=O)[C@H](CO)NC(=O)[C@H](C(C)C)NC1=O` [Example 1256] ({CH2CO}-[Phe(4-CH2NH2)]YDWV[Bip]R[NMeA][NMeF]RLVSCG-NH2; thioether N-14), the IC50 was 340 nM.
As to `CC(C)C[C@@H]1NC(=O)[C@H](Cc2c[nH]c3ccccc23)NC(=O)[C@H](CC(=O)O)NC(=O)[C@H](Cc2ccc(O)cc2)NC(=O)[C@H](Cc2ccccc2)NC(=O)CSC[C@@H](C(=O)N[C@@H](C)C(N)=O)NC(=O)[C@H](CO)NC(=O)[C@H](C(C)C)NC(=O)[C@H](CC(C)C)NC(=O)[C@H](CCN)NC(=O)[C@H]2CCCN2C(=O)[C@H](C)N(C)C(=O)[C@H](C(C)C)NC(=O)[C@H](Cc2ccc(-c3ccccc3)cc2)NC1=O` [Example 1397] ({CH2CO}-FYDWL[Bip]V[NMeA][dP][Dab]LVSCA-NH2; thioether N-14), the IC50 is 40 nM.
For `CC(C)C[C@@H]1NC(=O)[C@H](CCN)NC(=O)[C@H](Cc2ccccc2)N(C)C(=O)[C@H](C)N(C)C(=O)[C@H](CCCNC(=N)N)NC(=O)[C@H](Cc2ccc(-c3ccccc3)cc2)NC(=O)[C@H](C(C)C)NC(=O)[C@H](Cc2c[nH]c3ccccc23)NC(=O)[C@H](CC(=O)O)NC(=O)[C@H](Cc2ccc(O)cc2)NC(=O)[C@H](CC(N)=O)NC(=O)CSC[C@@H](C(=O)N[C@@H](C)C(N)=O)NC(=O)[C@H](CO)NC(=O)[C@H](C(C)C)NC1=O` [Example 1303] ({CH2CO}-NYDWV[Bip]R[NMeA][NMeF][Dab]LVSCA-NH2; thioether N-14) the value was 70 nM; for `CC(C)C[C@@H]1NC(=O)[C@H](Cc2c[nH]c3ccccc23)NC(=O)[C@H](CC(=O)O)NC(=O)[C@H](Cc2ccc(O)cc2)NC(=O)[C@H](Cc2ccccc2)NC(=O)CSC[C@@H](C(=O)NCC(N)=O)NC(=O)[C@H](CO)NC(=O)[C@H](C(C)C)NC(=O)[C@H](CC(C)C)NC(=O)[C@H](CCN)NC(=O)[C@H]2CCCN2C(=O)[C@H](C)N(C)C(=O)[C@H](C(C)C)NC(=O)[C@H](Cc2ccc(-c3ccccc3)cc2)NC1=O` [Example 1399] ({CH2CO}-FYDWL[Bip]V[NMeA][dP][Dab]LVSCG-NH2; thioether N-14), 70 nM.
Take `CC(C)C[C@@H]1NC(=O)[C@H](Cc2c[nH]c3ccccc23)NC(=O)[C@H](CC(=O)O)NC(=O)[C@H](Cc2ccc(O)cc2)NC(=O)[C@H](CC(N)=O)NC(=O)CSC[C@@H](C(=O)N[C@@H](C)C(N)=O)NC(=O)[C@H]([C@@H](C)O)NC(=O)[C@H](C(C)C)NC(=O)[C@H](CC(C)C)NC(=O)[C@H](CC(N)=O)NC(=O)[C@H]2CCCN2C(=O)[C@H](CCCN)NC(=O)[C@H](C(C)C)NC(=O)[C@H](Cc2ccc(-c3ccccc3)cc2)NC1=O` [Example 1426] ({CH2CO}-NYDWL[Bip]V[Orn][dP]NLVTCA-NH2; thioether N-14): the IC50 was found to be 220 nM.
For `CC(C)C[C@@H]1NC(=O)[C@H](Cc2cccc(C(F)(F)F)c2)NC(=O)[C@H](CC(=O)O)NC(=O)[C@H](Cc2ccc(O)cc2)NC(=O)[C@H](Cc2ccccc2)NC(=O)CSC[C@@H](C(=O)N[C@@H](C)C(N)=O)NC(=O)[C@H](CO)NC(=O)[C@H](C(C)C)NC(=O)[C@H](CC(C)C)NC(=O)[C@H](CC(N)=O)NC(=O)CN(C)C(=O)[C@H](C)N(C)C(=O)[C@H](C(C)C)NC(=O)[C@H](Cc2ccc(-c3ccccc3)cc2)NC1=O` [Example 1081] ({CH2CO}-FYD[Phe(3-CF3)]L[Bip]V[NMeA][Sar]NLVSCA-NH2; thioether N-14) the value was 230 nM; for `COc1ccc(C[C@@H]2NC(=O)CSC[C@@H](C(=O)NCC(N)=O)NC(=O)[C@H](CO)NC(=O)[C@H](C(C)C)NC(=O)[C@H](CC(C)C)NC(=O)[C@H](CC(N)=O)NC(=O)CN(C)C(=O)[C@H](C)N(C)C(=O)[C@H](C(C)C)NC(=O)[C@H](Cc3ccc(-c4ccccc4)cc3)NC(=O)[C@H](CC(C)C)NC(=O)[C@H](Cc3c[nH]c4ccccc34)NC(=O)[C@H](CC(=O)O)NC(=O)[C@H](Cc3ccc(O)cc3)NC2=O)cc1` [Example 1138] ({CH2CO}-Y(Me)YDWL[Bip]V[NMeA][Sar]NLVSCG-NH2; thioether N-14), 570 nM; for `CC(C)C[C@@H]1NC(=O)[C@H](Cc2c[nH]c3ccccc23)NC(=O)[C@H](CC(=O)O)NC(=O)[C@H](Cc2ccc(O)cc2)NC(=O)[C@H](CC(N)=O)NC(=O)CSC[C@@H](C(=O)N[C@@H](C)C(N)=O)NC(=O)[C@H](CO)NC(=O)[C@H](C(C)C)NC(=O)[C@H](CC(C)C)NC(=O)[C@H](CC(N)=O)NC(=O)[C@H]2CCCN2C(=O)[C@H](C)N(C)C(=O)[C@H](C(C)C)NC(=O)[C@H](Cc2ccc(-c3ccccc3)cc2)NC1=O` [Example 1031] ({CH2CO}-NYDWL[Bip]V[NMeA][dP]NLVSCA-NH2; thioether N-14), 60 nM.
For `CC(C)C[C@@H]1NC(=O)[C@H](CCCN)NC(=O)[C@H](Cc2ccccc2)N(C)C(=O)[C@H](C)N(C)C(=O)[C@H](CCCNC(=N)N)NC(=O)[C@H](Cc2ccc(-c3ccccc3)cc2)NC(=O)[C@H](C(C)C)NC(=O)[C@H](Cc2c[nH]c3ccccc23)NC(=O)[C@H](CC(=O)O)NC(=O)[C@H](Cc2ccc(O)cc2)NC(=O)[C@H](Cc2ccccc2)NC(=O)CSC[C@@H](C(=O)N[C@@H](CCC(=O)O)C(N)=O)NC(=O)[C@H]([C@@H](C)O)NC(=O)[C@H](C(C)C)NC1=O` [Example 1361] ({CH2CO}-FYDWV[Bip]R[NMeA][NMeF][Orn]LVTCE-NH2; thioether N-14) the value was 380 nM; for `CC(C)C[C@@H]1NC(=O)[C@H](CCCNC(=N)N)NC(=O)[C@H](Cc2ccccc2)N(C)C(=O)[C@H](C)N(C)C(=O)[C@H](CCCNC(=N)N)NC(=O)[C@H](Cc2ccc(-c3ccccc3)cc2)NC(=O)[C@H](C(C)C)NC(=O)[C@H](Cc2c[nH]c3ccccc23)NC(=O)[C@H](CC(=O)O)NC(=O)[C@H](Cc2ccc(O)cc2)NC(=O)[C@H](Cc2ccccc2)NC(=O)CSC[C@@H](C(=O)N[C@@H](CO)C(N)=O)NC(=O)[C@H](CO)NC(=O)[C@H](C(C)C)NC1=O` [Example 1083] ({CH2CO}-FYDWV[Bip]R[NMeA][NMeF]RLVSCS-NH2; thioether N-14), 240 nM.
Consider `CC(C)C[C@@H]1NC(=O)[C@H](Cc2c[nH]c3ccccc23)NC(=O)[C@H](CC(=O)O)NC(=O)[C@H](Cc2ccc(O)cc2)NC(=O)[C@H](Cc2ccccc2)NC(=O)CSC[C@@H](C(=O)N[C@@H](C)C(N)=O)NC(=O)[C@H]([C@@H](C)O)NC(=O)[C@H](C(C)C)NC(=O)[C@H](CC(C)C)NC(=O)[C@H](CCN)NC(=O)[C@H]2CCCN2C(=O)[C@H](CCN)NC(=O)[C@H](C(C)C)NC(=O)[C@H](Cc2ccc(-c3ccccc3)cc2)NC1=O` [Example 1416] ({CH2CO}-FYDWL[Bip]V[Dab][dP][Dab]LVTCA-NH2; thioether N-14), for which the IC50 stood at 240 nM.
For `CC(C)C[C@@H]1NC(=O)[C@H](Cc2c[nH]c3ccccc23)NC(=O)[C@H](CC(=O)O)NC(=O)[C@H](Cc2ccc(O)c([N+](=O)[O-])c2)NC(=O)[C@H](Cc2ccccc2)NC(=O)CSC[C@@H](C(=O)N[C@@H](C)C(N)=O)NC(=O)[C@H](CO)NC(=O)[C@H](C(C)C)NC(=O)[C@H](CC(C)C)NC(=O)[C@H](CC(N)=O)NC(=O)CN(C)C(=O)[C@H](C)N(C)C(=O)[C@H](C(C)C)NC(=O)[C@H](Cc2ccc(-c3ccccc3)cc2)NC1=O` [Example 1087] ({CH2CO}-F[Tyr(3-NO2)]DWL[Bip]V[NMeA][Sar]NLVSCA-NH2; thioether N-14) the value was 250 nM.
For `CC(C)C[C@@H]1NC(=O)[C@H](Cc2c[nH]c3ccccc23)NC(=O)[C@H](CC(=O)O)NC(=O)[C@H](Cc2ccc(O)cc2)NC(=O)[C@H](Cc2cscn2)NC(=O)CSC[C@@H](C(=O)NCC(N)=O)NC(=O)[C@H](CO)NC(=O)[C@H](C(C)C)NC(=O)[C@H](CC(C)C)NC(=O)[C@H](CC(N)=O)NC(=O)CN(C)C(=O)[C@H](C)N(C)C(=O)[C@H](C(C)C)NC(=O)[C@H](Cc2ccc(-c3ccccc3)cc2)NC1=O` [Example 1132] ({CH2CO}-[Ala(4-thiazolyl)]YDWL[Bip]V[NMeA][Sar]NLVSCG-NH2; thioether N-14) the value was 530 nM.
For `CC(C)C[C@@H]1NC(=O)[C@H](CCCCN)NC(=O)[C@H](Cc2ccccc2)N(C)C(=O)[C@H](C)N(C)C(=O)[C@H](CCCNC(=N)N)NC(=O)[C@H](Cc2ccc(-c3ccccc3)cc2)NC(=O)[C@H](C(C)C)NC(=O)[C@H](Cc2c[nH]c3ccccc23)NC(=O)[C@H](CC(=O)O)NC(=O)[C@H](Cc2ccc(O)cc2)NC(=O)[C@H](CC(N)=O)NC(=O)CSC[C@@H](C(=O)N[C@@H](C)C(N)=O)NC(=O)[C@H]([C@@H](C)O)NC(=O)[C@H](C(C)C)NC1=O` [Example 1385] ({CH2CO}-NYDWV[Bip]R[NMeA][NMeF]KLVTCA-NH2; thioether N-14) the value was 280 nM; for `CC(C)C[C@@H]1NC(=O)[C@H](CCN)NC(=O)[C@H](Cc2ccccc2)N(C)C(=O)[C@H](C)N(C)C(=O)[C@H](CCCNC(=N)N)NC(=O)[C@H](Cc2ccc(-c3ccccc3)cc2)NC(=O)[C@H](C(C)C)NC(=O)[C@H](Cc2c[nH]c3ccccc23)NC(=O)[C@H](CC(=O)O)NC(=O)[C@H](Cc2ccc(O)cc2)NC(=O)[C@H](Cc2ccccc2)NC(=O)CSC[C@@H](C(=O)N[C@@H](C)C(N)=O)NC(=O)[C@H]([C@@H](C)O)NC(=O)[C@H](C(C)C)NC1=O` [Example 1322] ({CH2CO}-FYDWV[Bip]R[NMeA][NMeF][Dab]LVTCA-NH2; thioether N-14), 120 nM.
